Data set [1] in a line: Critical micelle concentration by pyrene fluorescence probe spectroscopy. Type of data set: physicochemical. The note with it: aqueous solution. The text has this:
DP7-C can be self-assembled into micelles in aqueous solution. We detected the critical micelle concentration (CMC) of DP7-C by the pyrene fluorescence probe spectroscopy.
The fluorescence emission spectrum of pyrene in aqueous solution has five fluorescence peaks, and the ratio of the first emission spectrum light intensity I1 to the third emission spectrum light intensity I3 in aqueous solution (the ratio of fluorescence intensity at 373 nm to that at 384 nm) is about 1.8. According to the literature, the surfactant may solubilize nonpolar organic compounds, and the surfactant at different concentrations may solubilize pyrene to varying degrees. Thus, the solubilizing ability of the solution will have an obvious mutation point after the concentration of surfactant exceeds the critical micelle concentration (CMC). […] Therefore, the CMC of […] in the solution can be determined by measuring the fluorescence spectra of pyrene in DP7-C solutions with different concentrations. […] Then, detect I1 and I3 by a fluorescence spectrophotometer. Add different volumes of sample mother liquor to BD tubes containing trace pyrene to reach the concentrations of 0.0001, 0.001, 0.01, 0.025, 0.05, 0.10, 0.125, 0.25, 0.5, 1.0 and 1.5 mg/ml respectively, and determine the fluorescence spectra of each solution. […]

Data set [2] deals with Pseudomonas aeruginosa with fluorescence (PAO1-GFP). Description: Abdominally infected zebrafish model. In kind it is in vivo. The note with it: DP7-C 1 mg/mL; green fluorescence at 3 h, 8 h, 18 h. The procedure: Next, we established an abdominally infected zebrafish model through Pseudomonas aeruginosa with fluorescence (PAO1-GFP) to further verify the anti-infection effect of DP7-C.
The male and female AB wild zebrafish were mated according to the mating and breeding procedures. After spawning, the roe was collected, placed in an incubator at 28° C. and incubated in the seawater containing PTU. The seawater containing PTU was changed once a day. When zebrafish was incubated for 48 h, Pseudomonas aeruginosa with fluorescence (PAO1-GFP) diluted with DP7-C and normal saline was intraperitoneally injected, and photographs were taken at 3 h, 8 h and 18 h under a fluorescence microscope to observe the growth of PAO1-GFP in the abdomen of zebrafish.

For the next data set, the system named is DC cells. Kind of data set: Uptake of OVA antigen by dendritic cells (flow cytometry). Type of data set: cell-based, mouse. The following applies: 3 h. The procedure: DC cells are the most powerful antigen presenting cells in the body, which can absorb foreign substances, process and present them to T cells to stimulate immune response. DC cells play an important role in T cell immune response and production of T cell dependent antibody. We examined the effect of DP7-C on DC presenting antigen by flow cytometry.
The experimental steps are as follows: • (1) Isolate C57/BL mouse primary bone marrow cells and incubate in the induced medium containing 10 ng/ml of GM-CSF and 10 ng/ml of IL-4 for 5 days. • (2) Add the OVA protein markers FITC, OVA or DP7-C/OVA into DC cell culture, mix well and incubate for 3 h. • (3) Collect the stimulated DC cells, wash with PBS twice, re-suspend the cells in 300 μL of PBS, and perform flow cytometry.
Background: Flow cytometry measures light scatter and fluorescence of single cells or particles in a stream.

Another data set has as its system splenic lymphocytes. Kind of data set: Cellular immune response of splenic lymphocytes (intracellular cytokine flow cytometry). In kind it is cell-based, mouse. The note with it: spleen of immunized mice, OVA restimulation.
Description: […]

Data set [3] can be described thus: Morphology under transmission electron microscopy. Type of data set: physicochemical. The note with it: TEM. On the procedure:
As the DP7 is positively charged, the DP7-C micelle formed by self-assembly is also positively charged in aqueous solution, showing its potential as a non-viral gene transmission vector, especially siRNA transmission vector. The morphology of DP7-C micelles formed by self-assembly and DP7-C/siRNA complexes is observed under a transmission electron microscopy (H-6009IV, Hitachi, Japan). First, 1 mg\mL of micellar solution is diluted with distilled water and coated on a copper mesh, covered with nitrocellulose, then negatively stained with phosphotungstic acid, dried at room temperature and observed under an electron microscope. […] Under the electron microscope, the particle size of DP7-C micelles is about 60 nm, and the particle size of DP7-C micelle/siRNA complex is about 100 nm (see FIGS. 14A and 14B for the results).

Where a SMILES comes first, the peptide text is derived from it. The star is where a group is joined. Succinyl(4-O-cholesteryl) = CC(C)CCC[C@@H](C)[C@H]1CC[C@H]2[C@@H]3CC=C4C[C@@H](OC(=O)CCC(=O)*)CC[C@]4(C)[C@H]3CC[C@]12C

`CC[C@H](C)[C@H](NC(=O)[C@H](CCCNC(=N)N)NC(=O)[C@H](Cc1c[nH]c2ccccc12)NC(=O)[C@H](CCC(N)=O)NC(=O)[C@@H](NC(=O)CCC(=O)O[C@H]1CC[C@@]2(C)C(=CC[C@H]3[C@@H]4CC[C@H]([C@H](C)CCCC(C)C)[C@@]4(C)CC[C@@H]32)C1)C(C)C)C(=O)N[C@@H](CCCNC(=N)N)C(=O)N[C@H](C(=O)N[C@@H](C)C(=O)N[C@H](C(=O)N[C@H](C(=O)N[C@@H](CCCNC(=N)N)C(=O)N[C@@H](CCCCN)C(N)=O)[C@@H](C)CC)C(C)C)C(C)C` [DP7-C, Chol-suc-VQWRIRVAVIRK-NH2] ({Succinyl(4-O-cholesteryl)}-VQWRIRVAVIRK-NH2): in data set [1], the “critical micelle concentration (CMC)” value was found to be 3.47 µg/mL. In data set [2], the “growth rate of PAO1-GFP in zebrafish abdominal cavity” value is listed as “much lower than that of NS group”. Moreover, in the data set with DC cells (2.5 μg/ml), the “uptake of antigen by DC cells” value is given as “significantly increase”. Further, in the data set on DC cells (40 μg/ml), the “uptake of OVA by DC cells” value is on record as “slightly enhanced”. In the data set with splenic lymphocytes, the “percentage of CD4+/IFN-γ+, CD8+/IFN-γ+ and CD4+/IL-17A+ cells” value is given as “increased”. Besides, in data set [3], the “particle size under the electron microscope” value is on record as “about 60 nm”.

These data come from patent publication US20250249110A1, “ANTIMICROBIAL PEPTIDE DERIVATIVE AND USE THEREOF” (SICHUAN UNIVERSITY, priority 2016, published 2025).
